The experiment deals with monoclonal catalytic antibody 1E9 (reductively methylated), secreted by hybridoma 1E9, ATCC HB 10261. The experiment in a line: Antibody-catalyzed Diels-Alder [4+2] cycloaddition/fragmentation reaction between TCTD and N-ethylmaleimide. The format is biochemical, mouse. The text has this:
Because TCTD reacts with lysine residues on the surface of the immunoglobulins, it was necessary to reduce the nucleophilicity of the amino groups by exhaustive reductive methylation [Jentoft et al., J. Biol. Chem., 254:4359 (1979)]. […] Chemical modification of immunoglobulins in this way is likely to be of general value, as it will permit reactive molecules like epoxides, Michael acceptors or other alkylating agents to be employed as substrates for catalytic antibodies.
The methylated antibodies were assayed at 25 degrees C. for their ability to promote the Diels-Alder [4+2] cycloaddition/fragmentation reaction between TCTD and N-ethylmaleimide (NEM) in aqueous buffer (20 mM MES, 100 mM NaCl, pH 6.0) containing 10 percent acetonitrile. Cycloadditions were followed by monitoring the disappearance of TCTD at 330 nm or by analytical reverse-phase HPLC. HPLC kinetic assays were performed on a Vydac C-18 218-TP-510 reverse phase column (10 mm×25 cm, 2 mL/min, gradient elution from 100 percent H2 O to 60:40 CH3 CN:H2 O in 20 minutes, then 5 minutes at the latter solvent composition) using acetophenone as an internal standard.

For the compound `CCN1C(=O)C2C(C1=O)C1(Cl)C(Cl)=C(Cl)C2(Cl)C1(Cl)Cl` (stereo not drawn) [Compound 3], the “inhibition of the catalyzed reaction” value (preincubation of the antibody with an equimolar amount of the inhibitor) is reported as “stopped the oatalyzed reaction completely”.

One may read the Km as the concentration of substrate that gives half-maximal velocity. Consider `CCN1C(=O)C=CC1=O` [NEM, N-ethylmaleimide], for which, under “NEM concentration varied, 0.61 mM TCTD held constant, 25 degrees C, 20 mM MES, 100 mM NaCl, pH 6.0, 10 percent acetonitrile”, the apparent kcat stood at 4.3 ± 0.3 min⁻¹. Moreover, the Km (NEM concentration varied, 0.61 mM TCTD held constant, 25 degrees C, 20 mM MES, 100 mM NaCl, pH 6.0, 10 percent acetonitrile, read-out: apparent (Km)NEM) was 21 ± 4 mM.
